Among the data in patent US20180251431A1 (VERTEX PHARMACEUTICALS INCORPORATED, priority 2016, published 2018) are IC50 values, retold here.

One may read the IC50 as the concentration at which inhibition is half-maximal.

The subject of this assay is HEK293 cells. The assay can be described thus: HEK293 VLCFA-LPC IC50 determination (13C-labeled C26:0 LPC by UHPLC/MS). The class given is cell-based, human. Conditions: Homo sapiens, HEK293, HEK293 cells; average of one or more replicates; read-out: Average HEK293 IC50. How it is done:
HEK293 cells were treated with compounds, such as those listed in Tables A-E of Example 1, using the representative manual protocols described below. The protocols below were also adapted to a semi-automated protocol using standard methods in the art.
Cell Culture Growth Conditions:
HEK293 cells were maintained in FreeStyle F17 media (Gibco # A13835) supplemented with PenStrep (1%, Gibco #15070-063), Glutamax (2%, Gibco #35050-061), and Pluronic (0.1%, Gibco #24040-032) (“supplemented media”). Suspension cultures were grown in disposable Erlenmeyer flasks at about 120 rpm, 37° C., 5% CO2, and 80% humidity. Cell densities were kept between about 0.5 and 3 million cells per mL, in about 50-200 mL per flask.
Treatment of Cells with Compounds Provided Herein:
The cells were treated with compounds using either a total of 900 uL cell media volume (high-volume assay) or a total of 200 uL cell media volume (low-volume assay). In the high volume assay, 450 μL of supplemented media plus 13C-acetate (1.0 mg/mL, Sigma Aldrich #282014) were added to 0.5 μL of a compound (such as those in Tables A-E) in DMSO in a polypropylene v-bottom plate (Costar #3363) in 1 of 3 dilution schemes. The contents of each well were mixed and transferred to a sterile polypropylene deep-well v-bottom plate (Costar #3960). 450 μL of cultured HEK293 cells in supplemented media at a density of 1.0 million cells/mL was added to each well. In the low volume assay, 100 μL of supplemented media plus 13C-acetate (1.0 mg/mL, Sigma Aldrich #282014) were added to either 0.1 μL or 1.0 uL of a compound (such as those in Tables A-E) in DMSO in a polypropylene v-bottom plate (Costar #3363) in 1 of 3 dilution schemes. 100 μL of cultured HEK293 cells in supplemented media at a density of 1.0 million cells/mL was added to each well. The high volume and low volume plates were sealed with either AirPore Tape Sheets (Qiagen #19571) or Duetz plate covers to control evaporation and placed into a shaking incubator at 225 rpm, 37° C., 5% CO2, and 80% humidity for 48 hours. For both the high and low volume assays the 3 dilution schemes used were as follows:
Following incubation, treated cells were harvested by centrifugation at 1690×g for 10 minutes. In the high volume assay 200 uL treated cells were transferred to a polypropylene v-bottom plate (Costar #3363) prior to centrifugation. In the low volume assay the incubation plate was centrifuged directly, without a transfer step. The supernatant was then discarded and the analytes were extracted using 1 of 2 different extraction schemes. In the first scheme, the cell pellet was visibly broken up by mixing the cell pellet up and down in 100 μL of hexane/isopropanol (60:40) 20 times. The resulting mixture was transferred to a 0.45 μm Durapore membrane (Millipore #MSH VN4510) atop a polypropylene v-bottom plate (Costar #3363) and filtered by centrifugation at 1690×g for 5 minutes. 120 μL of n-butanol containing 10 nM C13:0 lysophosphatidylcholine was added to the filtrate as an injection control standard, then the entire volume was transferred to a new Durapore membrane/v-bottom plate. In the second scheme, the cell pellet was visibly broken up by mixing the cell pellet up and down in 180 μL of methanol containing 10 nM C13:0 lysophosphatidylcholine 20 times. The resulting mixture was transferred to a 0.45 μm Durapore membrane (Millipore #MSH VN4510) atop a polypropylene v-bottom plate and filtered by centrifugation at 1690×g for 5 minutes. In both schemes, the plates were then sealed with pierceable capmats (Micronic MP53017) and stored at −20 OC until analyzed.
UHPLC/Mass Spectrometry Readout:
The filtered organic extraction was analyzed with a 1290 Agilent Infinity Series UHPLC coupled to an ABI Sciex QTrap 6500 mass spectrometer. […]
As for `O=C(Cc1cc(F)cc(F)c1)Nc1ccn(-c2ccccc2)n1` [Compound 58, 2-(3,5-difluorophenyl)-N-(1-phenylpyrazol-3-yl)acetamide], the IC50 was over 5000 nM. For `O=C(Cc1cc(F)ccc1F)Nc1ccn(-c2ccccc2)n1` [Compound 59, 2-(2,5-difluorophenyl)-N-(1-phenylpyrazol-3-yl)acetamide], the IC50 stood at 250 nM. Consider `O=C(Cc1cccc(F)c1F)Nc1ccn(-c2ccccc2)n1` [Compound 60, 2-(2,3-difluorophenyl)-N-(1-phenylpyrazol-3-yl)acetamide], for which the IC50 is over 2000 nM. Take `O=C(Cc1c(F)cccc1F)Nc1ccn(-c2ccccc2)n1` [Compound 61, 2-(2,6-difluorophenyl)-N-(1-phenylpyrazol-3-yl)acetamide]: the IC50 came out at 65 nM.

In the case of `COc1ccc(CC(=O)Nc2ccn(-c3ccccc3)n2)cc1C` [Compound 62, 2-(4-methoxy-3-methyl-phenyl)-N-(1-phenylpyrazol-3-yl)acetamide], the IC50 is 3700 nM. `COc1ccc(CC(=O)Nc2ccn(-c3ccccc3)n2)cc1F` [Compound 63, 2-(3-fluoro-4-methoxy-phenyl)-N-(1-phenylpyrazol-3-yl)acetamide]: the IC50 is over 5000 nM. For the molecule `O=C(Cc1ccc(F)c(Cl)c1)Nc1ccn(-c2ccccc2)n1` [Compound 64, 2-(3-chloro-4-fluoro-phenyl)-N-(1-phenylpyrazol-3-yl)acetamide], the IC50 is over 5000 nM. On to `COc1ccc(CC(=O)Nc2ccn(-c3ccccc3)n2)cc1OC` [Compound 66, 2-(3,4-dimethoxylphenyl)-N-(1-phenylpyrazol-3-yl)acetamide], for which the IC50 stood at 2800 nM.

Regarding `O=C(Cc1ccc(Cl)c(Cl)c1)Nc1ccn(-c2ccccc2)n1` [Compound 68, 2-(3,4-dichlorophenyl)-N-(1-phenylpyrazol-3-yl)acetamide], the IC50 is over 5000 nM. To `O=C(Cc1cccc(Cl)c1Cl)Nc1ccn(-c2ccccc2)n1` [Compound 69, 2-(2,3-dichlorophenyl)-N-(1-phenylpyrazol-3-yl)acetamide] belongs 5000 nM; to `O=C(Cc1c(Cl)cccc1Cl)Nc1ccn(-c2ccccc2)n1` [Compound 70, 2-(2,6-dichlorophenyl)-N-(1-phenylpyrazol-3-yl)acetamide], over 2000 nM. `O=C(Cc1ccc(F)c(C(F)(F)F)c1)Nc1ccn(-c2ccccc2)n1` [Compound 71, 2-[4-fluoro-3-(trifluoromethyl)phenyl]-N-(1-phenylpyrazol-3-yl)acetamide]: the IC50 is over 5000 nM. Take `O=C(Cc1cc(F)cc(C(F)(F)F)c1)Nc1ccn(-c2ccccc2)n1` [Compound 72, 2-[3-fluoro-5-(trifluoromethyl)phenyl]-N-(1-phenylpyrazol-3-yl)acetamide]: the concentration for half-maximal inhibition (IC50) was over 5000 nM.

`O=C(Cc1cc(C(F)(F)F)cc(C(F)(F)F)c1)Nc1ccn(-c2ccccc2)n1` [Compound 73, 2-[3,5-bis(trifluoromethyl)phenyl]-N-(1-phenylpyrazol-3-yl)acetamide]: the IC50 was over 5000 nM. The value for `O=C(Cc1ccc(F)c(F)c1F)Nc1ccn(-c2ccccc2)n1` [Compound 74, N-(1-phenylpyrazol-3-yl)-2-(2,3,4-trifluorophenyl)acetamide] was over 5000 nM; that for `O=C(Cc1cc(F)c(F)cc1F)Nc1ccn(-c2ccccc2)n1` [Compound 75, N-(1-phenylpyrazol-3-yl)-2-(2,4,5-trifluorophenyl)acetamide] was over 2000 nM; that for `O=C(Cc1c(F)cc(F)cc1F)Nc1ccn(-c2ccccc2)n1` [Compound 76, N-(1-phenylpyrazol-3-yl)-2-(2,4,6-trifluorophenyl)acetamide] was 72 nM. For the molecule `Cc1ccc(C(C)C(=O)Nc2ccn(-c3ccccc3)n2)cc1` (stereo not drawn) [Compound 77, N-(1-phenylpyrazol-3-yl)-2-(p-tolyl)propanamide], the IC50 came to 3300 nM. To `CC(C)Cc1ccc(C(C)C(=O)Nc2ccn(-c3ccccc3)n2)cc1` (stereo not drawn) [Compound 78, 2-(4-isobutylphenyl)-N-(1-phenylpyrazol-3-yl)propanamide] belongs over 5000 nM; to `O=C(Nc1ccn(-c2ccccc2)n1)C1(c2ccc(Cl)cc2)CCCC1` [Compound 79, 1-(4-chlorophenyl)-N-(1-phenylpyrazol-3-yl)cyclopentanecarboxamide], over 5000 nM; to `CC(C(=O)Nc1ccn(-c2ccccc2)n1)c1ccccc1` (stereo not drawn) [Compound 80, 2-phenyl-N-(1-phenylpyrazol-3-yl)propanamide], 47 nM.

For `O=C(Nc1ccn(-c2nccs2)n1)C1(c2ccccc2)CC1` [Compound 81, 1-phenyl-N-(1-thiazol-2-ylpyrazol-3-yl)cyclopropanecarboxamide], the IC50 came out at 11 nM.

With `O=C(Nc1ccn(-c2ncccc2F)n1)C1(c2ccccc2)CC1` [Compound 82, N-[1-(3-fluoro-2-pyridyl)pyrazol-3-yl]-1-phenyl-cyclopropanecarboxamide], the IC50 is 190 nM.

For the molecule `O=C(Cc1ccccc1)Nc1ccn(-c2ccnc(Cl)c2)n1` [Compound 83, N-(1-(2-chloropyridin-4-yl)-1H-pyrazol-3-yl)-2-phenylacetamide], the IC50 turned out to be 600 nM. For the molecule `O=C(Nc1ccn(-c2ccnc(Cl)c2)n1)C1(c2ccccc2)CC1` [Compound 84, N-(1-(2-chloropyridin-4-yl)-1H-pyrazol-3-yl)-1-phenylcyclopropane-1-carboxamide], the IC50 was determined as 61 nM. As for `O=C(Nc1ccn(-c2cncnc2)n1)C1(c2ccccc2F)CC1` [Compound 85, 1-(2-fluorophenyl)-N-(1-pyrimidin-5-ylpyrazol-3-yl)cyclopropanecarboxamide], the IC50 was determined as 95 nM. Take `O=C(Cc1ccccc1)Nc1ccn(-c2ccccn2)n1` [Compound 86, 2-phenyl-N-[1-(2-pyridyl)pyrazol-3-yl]acetamide]: the IC50 turned out to be 680 nM. With `O=C(Cc1ccc(F)cc1)Nc1ccn(-c2ncccc2F)n1` [Compound 88, 2-(4-fluorophenyl)-N-[1-(3-fluoro-2-pyridyl)pyrazol-3-yl]acetamide], the IC50 was over 5000 nM. On to `O=C(Cc1ccccc1)Nc1ccn(-c2nccs2)n1` [Compound 89, 2-phenyl-N-(1-thiazol-2-ylpyrazol-3-yl)acetamide], for which the IC50 is 340 nM. The value for `O=C(Cc1ccccc1F)Nc1ccn(-c2nccs2)n1` [Compound 90, 2-(2-fluorophenyl)-N-(1-thiazol-2-ylpyrazol-3-yl)acetamide] was 350 nM; that for `O=C(Cc1ccc(F)cc1)Nc1ccn(-c2nccs2)n1` [Compound 91, 2-(4-fluorophenyl)-N-(1-thiazol-2-ylpyrazol-3-yl)acetamide] was 1900 nM. `O=C(Nc1ccn(-c2nccs2)n1)C1(c2ccccc2F)CC1` [Compound 92, 1-(2-fluorophenyl)-N-(1-thiazol-2-ylpyrazol-3-yl)cyclopropanecarboxamide]: the IC50 turned out to be 38 nM. To `O=C(Cc1ccccc1)Nc1ccn(-c2ncccc2F)n1` [Compound 93, N-[1-(3-fluoro-2-pyridyl)pyrazol-3-yl]-2-phenyl-acetamide] belongs over 10000 nM; to `O=C(Cc1ccccc1F)Nc1ccn(-c2ncccc2F)n1` [Compound 94, 2-(2-fluorophenyl)-N-[1-(3-fluoro-2-pyridyl)pyrazol-3-yl]acetamide], over 10000 nM; to `O=C(Nc1ccn(-c2ncccc2F)n1)C1(c2ccccc2F)CC1` [Compound 95, 1-(2-fluorophenyl)-N-[1-(3-fluoro-2-pyridyl)pyrazol-3-yl]cyclopropanecarboxamide], 390 nM. As to `O=C(Cc1ccccc1)Nc1ccn(-c2cncnc2)n1` [Compound 96, 2-phenyl-N-(1-pyrimidin-5-ylpyrazol-3-yl)acetamide], the IC50 came to 2400 nM.
